Laboratory results reported in US6800642B2, “Antipsychotic aminomethyl derivatives of 7,8-dihydro-2,6,9-trioxa-3-aza-cyclopenta[a]naphthalene” (Wyeth, priority 2001, dated 2004).
Structures can show the parent of a compound that is named as a salt.

How the values were obtained:
dopamine D2 receptor = target: T1, dopamine D2 receptor (Rattus norvegicus, UniProt P61169); assay: Dopamine D2 receptor affinity, 3H-quinpirole binding in homogenized rat striatal brain tissue
T1 construct: from tissue; host or cells: rat striatal brain tissue homogenate
T1 sequence (P61169 whole entry): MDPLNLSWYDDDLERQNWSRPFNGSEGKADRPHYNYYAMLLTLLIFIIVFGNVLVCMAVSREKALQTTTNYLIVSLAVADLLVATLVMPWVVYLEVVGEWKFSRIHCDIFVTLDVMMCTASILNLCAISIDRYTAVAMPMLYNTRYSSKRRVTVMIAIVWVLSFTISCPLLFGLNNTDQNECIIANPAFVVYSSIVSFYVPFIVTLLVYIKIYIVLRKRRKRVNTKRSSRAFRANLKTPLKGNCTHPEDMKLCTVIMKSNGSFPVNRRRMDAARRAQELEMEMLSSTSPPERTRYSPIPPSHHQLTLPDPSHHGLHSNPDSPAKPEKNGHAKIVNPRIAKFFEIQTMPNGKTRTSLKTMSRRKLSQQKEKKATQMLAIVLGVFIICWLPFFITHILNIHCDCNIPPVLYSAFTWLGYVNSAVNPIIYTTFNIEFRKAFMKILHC
Description: Affinity for the dopamine D2 receptor was established by a modification of the standard experimental test procedure of Seemen and Schaus, European Journal of Pharmacology 203:105-109, 1991, wherein homogenized rat striatal brain tissue is incubated with ^3H-quinpirole and various concentrations of test compound, filtered and washed and counted in a Betaplate scintillation counter.

dopamine receptors = assay: Reduction of mouse locomotor activity (functional antagonism of dopamine receptors in vivo); conditions: sc; male CF-1 mice; horizontal activity counts 10 to 20 minutes after dosing
Description: The antipsychotic activity of the compounds of the invention was established by a determination of functional antagonism of dopamine receptors in vivo, specifically the compounds' ability to reduce mouse locomotor activity according to the method of Martin and Bendensky, J. Pharmacol. Exp. Therap. 229:706-711, 1984, in which mice (male, CF-1, Charles River, 20-30 g) were injected with vehicle or various doses of each drug and locomotor activity was measured for 30 minutes using automated infrared activity monitors (Omnitech—8×8 inch open field) located in a darkened room. ED50's were calculated from the horizontal activity counts collected from 10 to 20 minutes after dosing using a nonlinear regression analysis with inverse prediction.

c1ccc(CCCCNCC2COc3ccc4nocc4c3O2)cc1 (stereo not drawn) [Example 7, (7,8-Dihydro-2,6,9-trioxa-3-aza-cyclopenta[a]naphthalen-8-ylmethyl)-(4-phenyl-butyl)-amine]
IC50 (dopamine D2 receptor): 4.1 nM

c1ccc2c(CCCNCC3COc4ccc5nocc5c4O3)c[nH]c2c1 (stereo not drawn) [Example 6, 2,3-Dihydro-N-[3-(1H-indol-3-yl)propyl]-1,4-dioxino[2,3-e][2,1]benzisoxazole-2-methanamine]
IC50 (dopamine D2 receptor): 4.8 nM

c1ccc(CCCCNCC2COc3ccc4nocc4c3O2)cc1 (stereo not drawn) (as salt: fumarate) (hydrate or solvate) [Example 7, (7,8-Dihydro-2,6,9-trioxa-3-aza-cyclopenta[a]naphthalen-8-ylmethyl)-(4-phenyl-butyl)-amine]
melting point: 172 to 174 °C

c1ccc2c(c1)CCN(CC1COc3ccc4nocc4c3O1)C2 (stereo not drawn) [Example 2, 8-(3,4-Dihydro-1H-isoquinolin-2-ylmethyl)-7,8-dihydro-2,6,9-trioxa-3-aza-cyclopenta[a]naphthalene]
IC50 (dopamine D2 receptor): 58.8 nM

O=C(c1ccc(F)cc1)C1CCN(CC2COc3ccc4nocc4c3O2)CC1 (stereo not drawn) [Example 5, [1-(7,8-Dihydro-2,6,9-trioxa-3-aza-cyclopenta[a]naphthalen-8-ylmethyl)-piperidin-4-yl]-(4-fluoro-phenyl)-methanone]
IC50 (dopamine D2 receptor): 32.4 nM

Fc1ccc2[nH]cc(CC3CCN(CC4COc5ccc6nocc6c5O4)CC3)c2c1 (stereo not drawn) [Example 4, 8-[4-(5-Fluoro-1H-indol-3-ylmethyl)-piperidin-1-ylmethyl]-7,8-dihydro-2,6,9-trioxa-3-aza-cyclopenta[a]naphthalene]
IC50 (dopamine D2 receptor): 36.7 nM

c1ccc2c(c1)CCN(CC1COc3ccc4nocc4c3O1)C2 (stereo not drawn) (as salt: fumarate) [Example 2, 8-(3,4-Dihydro-1H-isoquinolin-2-ylmethyl)-7,8-dihydro-2,6,9-trioxa-3-aza-cyclopenta[a]naphthalene]
melting point: 175 to 176 °C

c1ccc2c(CCCNCC3COc4ccc5nocc5c4O3)c[nH]c2c1 (stereo not drawn) (as salt: oxalate) [Example 6, 2,3-Dihydro-N-[3-(1H-indol-3-yl)propyl]-1,4-dioxino[2,3-e][2,1]benzisoxazole-2-methanamine]
melting point: 230 °C

C1=C(c2c[nH]c3ccccc23)CCN(CC2COc3ccc4nocc4c3O2)C1 (stereo not drawn) [Example 3, 8-[4-(1H-Indol-3-yl)-3,6-dihydro-2H-pyridin-1-ylmethyl]-7,8-dihydro-2,6,9-trioxa-3-aza-cyclopenta[a]naphthalene]
IC50 (dopamine D2 receptor): 350 nM
ED50 for reduction of mouse locomotor activity (dopamine receptors): ≥ 50 mg/kg
melting point: 110 °C

c1ccc(CNCC2COc3ccc4nocc4c3O2)cc1 (stereo not drawn) [Example 1, Benzyl-(-7,8-dihydro-2,6,9-trioxa-3-aza-cyclopenta[a]naphthalen-8-ylmethyl)-amine]
IC50 (dopamine D2 receptor): 8.05 nM

Fc1ccc2[nH]cc(CC3CCN(CC4COc5ccc6nocc6c5O4)CC3)c2c1 (stereo not drawn) (as salt: oxalate) [Example 4, 8-[4-(5-Fluoro-1H-indol-3-ylmethyl)-piperidin-1-ylmethyl]-7,8-dihydro-2,6,9-trioxa-3-aza-cyclopenta[a]naphthalene]
melting point: 202 to 205 °C

c1ccc(CNCC2COc3ccc4nocc4c3O2)cc1 (stereo not drawn) (as salt: fumarate) [Example 1, Benzyl-(-7,8-dihydro-2,6,9-trioxa-3-aza-cyclopenta[a]naphthalen-8-ylmethyl)-amine]
melting point: 180 °C

O=C(c1ccc(F)cc1)C1CCN(CC2COc3ccc4nocc4c3O2)CC1 (stereo not drawn) (as salt: fumarate) [Example 5, [1-(7,8-Dihydro-2,6,9-trioxa-3-aza-cyclopenta[a]naphthalen-8-ylmethyl)-piperidin-4-yl]-(4-fluoro-phenyl)-methanone]
melting point: 204 to 206 °C
